Measurements published in ChEMBL document CHEMBL4350991, “Design, synthesis, and biological evaluation of rutacecarpine derivatives as multitarget-directed ligands for the treatment of Alzheimer's disease” (Eur J Med Chem, 2019).

Key:
[1] = tested on: PC-12; assay: cells; type: functional; settings: Rattus norvegicus
[2] = tested on: PC-12; assay: cells; type: functional; settings: Rattus norvegicus; remark: listed apart in the source
[3] = biological target: Acetylcholinesterase (Electrophorus electricus, UniProt O42275); type: ADME
Description: Inhibition of electric eel AChE using acetylthiocholine iodide as substrate preincubated for 30 mins followed by substrate addition and measured after 30 mins by Ellman's method

[4] = biological target: Cholinesterase (Equus caballus, UniProt P81908)
Description: Inhibition of equine serum BuChE using S-butyrylthiocholine iodide as substrate preincubated with enzyme for 30 mins followed by substrate addition and measured after 30 mins by Ellman's method

[5] = tested on: PC-12; assay: cells; type: functional; settings: Rattus norvegicus; remark: listed apart in the source
[6] = tested on: PC-12; assay: cells; type: functional; settings: Rattus norvegicus; remark: listed apart in the source
[7] = tested on: PC-12; assay: cells; type: functional; settings: Rattus norvegicus; remark: listed apart in the source
[8] = tested on: PC-12; assay: Neuroprotective activity against H2O2 induced cytotoxicity in rat PC12 cells assessed as increase in cell viability pretreated for 3 hrs followed by H2O2 challenge measured after 24 hrs by MTT assay; type: functional, cell-based
[9] = n-Octanol-phosphate buffer partition co-efficient, log P of compound at pH 7.4 incubated for 48 hrs by UV spectrophotometry-based shake-flask method; type: physicochemical

Sequence of Cholinesterase (P81908 whole entry): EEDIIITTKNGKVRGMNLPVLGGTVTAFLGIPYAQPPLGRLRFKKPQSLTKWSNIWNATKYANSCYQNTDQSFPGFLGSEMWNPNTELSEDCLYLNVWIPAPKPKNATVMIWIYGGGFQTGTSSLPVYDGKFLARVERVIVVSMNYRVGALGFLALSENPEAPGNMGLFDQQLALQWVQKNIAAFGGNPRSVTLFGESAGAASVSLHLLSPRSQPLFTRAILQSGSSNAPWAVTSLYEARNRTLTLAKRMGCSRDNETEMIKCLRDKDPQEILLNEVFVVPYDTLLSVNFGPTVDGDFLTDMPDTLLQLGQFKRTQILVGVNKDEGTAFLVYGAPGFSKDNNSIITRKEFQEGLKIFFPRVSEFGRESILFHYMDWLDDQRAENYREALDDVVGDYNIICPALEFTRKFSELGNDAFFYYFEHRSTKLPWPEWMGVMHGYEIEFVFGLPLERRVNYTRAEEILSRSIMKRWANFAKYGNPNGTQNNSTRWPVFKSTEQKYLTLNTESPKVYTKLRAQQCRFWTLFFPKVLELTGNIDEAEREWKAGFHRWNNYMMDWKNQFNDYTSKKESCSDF
Sequence of Acetylcholinesterase (O42275 whole entry): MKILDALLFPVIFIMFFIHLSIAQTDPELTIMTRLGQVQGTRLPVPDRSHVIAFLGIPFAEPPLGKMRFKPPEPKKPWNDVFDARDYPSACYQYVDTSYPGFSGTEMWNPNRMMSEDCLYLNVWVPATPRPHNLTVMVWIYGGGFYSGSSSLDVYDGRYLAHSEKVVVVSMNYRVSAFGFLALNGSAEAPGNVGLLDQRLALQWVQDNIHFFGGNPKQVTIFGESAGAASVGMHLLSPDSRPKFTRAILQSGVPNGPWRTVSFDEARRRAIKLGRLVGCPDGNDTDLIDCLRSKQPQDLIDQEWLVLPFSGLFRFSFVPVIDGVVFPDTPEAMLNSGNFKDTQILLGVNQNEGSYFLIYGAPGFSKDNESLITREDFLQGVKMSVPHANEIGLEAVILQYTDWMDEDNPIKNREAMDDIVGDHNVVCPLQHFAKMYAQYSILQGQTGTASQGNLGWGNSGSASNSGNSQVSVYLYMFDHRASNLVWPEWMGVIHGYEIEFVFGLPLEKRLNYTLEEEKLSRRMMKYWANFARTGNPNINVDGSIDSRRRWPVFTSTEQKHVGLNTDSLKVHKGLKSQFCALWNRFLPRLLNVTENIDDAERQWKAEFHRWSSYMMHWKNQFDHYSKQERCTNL

Row | SMILES | viability at 30 µM [1] | viability at 50 µM [2] | IC50 [3] | IC50 [4] | viability at 1 µM [5] | viability at 10 µM [6] | viability at 5 µM [7] | Activity [8] | logD at 48 h [9]
1 | O=c1c2cc(NS(=O)(=O)c3ccc(Cl)s3)ccc2nc2n1CCc1c-2[nH]c2ccccc12 | 56% | 54.5% | > 100 µM | 76.9 µM | 43.5% | 55.1% | 48% | – | –
2 | O=c1c2cc(NS(=O)(=O)c3cccs3)ccc2nc2n1CCc1c-2[nH]c2ccccc12 | 41.9% | 42.4% | > 100 µM | > 100 µM | 37.7% | 40.8% | 39.2% | – | –
3 | O=c1c2cc(NS(=O)(=O)c3cccc([N+](=O)[O-])c3)ccc2nc2n1CCc1c-2[nH]c2ccccc12 | 34% | 25.6% | > 100 µM | 23.3 µM | 27% | 40.9% | 38.7% | – | –
4 | COc1cc2c(cc1OC)C(=O)C(CC1CCN(Cc3ccccc3)CC1)C2 (stereo unspecified) [DONEPEZIL] | 68.9% | 76.7% | – | – | 49.2% | 65.5% | 57.1% | – | –
5 | O=c1c2cc(NS(=O)(=O)c3ccc(Br)s3)ccc2nc2n1CCc1c-2[nH]c2ccccc12 | 56.2% | 58.2% | 83.4 µM | 60.3 µM | 52% | 55.1% | 52.3% | Dose-dependent effect | 2.91
6 | CC(=O)c1ccc(S(=O)(=O)Nc2ccc3nc4n(c(=O)c3c2)CCc2c-4[nH]c3ccccc23)cc1 | 57.7% | 59.8% | > 100 µM | 25.8 µM | 46.7% | 54.4% | 48% | Dose-dependent effect | –
7 | COC(=O)c1sccc1S(=O)(=O)Nc1ccc2nc3n(c(=O)c2c1)CCc1c-3[nH]c2ccccc12 | 39.8% | 38% | > 100 µM | > 100 µM | 35.9% | 39.9% | 42.5% | – | –
8 | O=c1c2cc(NS(=O)(=O)c3ccc(F)c(Cl)c3)ccc2nc2n1CCc1c-2[nH]c2ccccc12 | 59.4% | 61.1% | 85.6 µM | 4.63 µM | 48.1% | 58.1% | 50.8% | Dose-dependent effect | 2.81
9 | O=c1c2cc(NS(=O)(=O)c3ccc(F)cc3)ccc2nc2n1CCc1c-2[nH]c2ccccc12 | 46.6% | 51.8% | > 100 µM | 7.57 µM | 41.9% | 45.5% | 44.7% | – | 2.25
10 | O=c1c2cc(NS(=O)(=O)c3cccc(C(F)(F)F)c3)ccc2nc2n1CCc1c-2[nH]c2ccccc12 | 53.5% | 55.9% | > 100 µM | 3.82 µM | 49.1% | 53.2% | 50.7% | – | 3.01
11 | COc1ccc(S(=O)(=O)Nc2ccc3nc4n(c(=O)c3c2)CCc2c-4[nH]c3ccccc23)cc1OC | 47.7% | 51% | 51.2 µM | 10.9 µM | 40.4% | 45.2% | 44% | – | –
12 | O=c1c2cc(NS(=O)(=O)c3ccc([N+](=O)[O-])cc3)ccc2nc2n1CCc1c-2[nH]c2ccccc12 | 33.5% | 31% | > 100 µM | 16.5 µM | 32.4% | 37.1% | 33% | – | –
13 | O=c1c2cc(NS(=O)(=O)c3c(Cl)cccc3Cl)ccc2nc2n1CCc1c-2[nH]c2ccccc12 | 45.4% | 48.3% | 100 µM | 13.7 µM | 40.7% | 42.9% | 42.1% | – | –
14 | COc1ccc(S(=O)(=O)Nc2ccc3nc4n(c(=O)c3c2)CCc2c-4[nH]c3ccccc23)cc1 | 43.2% | 49% | > 100 µM | 8.01 µM | 39.3% | 42.3% | 51.8% | – | –
15 | O=c1c2cc(NS(=O)(=O)c3ccc(C(F)(F)F)cc3)ccc2nc2n1CCc1c-2[nH]c2ccccc12 | 56.5% | 60.1% | > 100 µM | 8.28 µM | 43.6% | 56.1% | 54.9% | Dose-dependent effect | 3.01
16 | CC(C)(C)c1ccc(S(=O)(=O)Nc2ccc3nc4n(c(=O)c3c2)CCc2c-4[nH]c3ccccc23)cc1 | 41.7% | 43.6% | > 100 µM | 13 µM | 37.6% | 41.2% | 39.9% | – | –
17 | O=c1c2cc(NS(=O)(=O)c3ccc(OC(F)(F)F)cc3)ccc2nc2n1CCc1c-2[nH]c2ccccc12 | 61.8% | 63.8% | 34.6 µM | 3.95 µM | 51.6% | 60.1% | 55.9% | Dose-dependent effect | 3.62
18 | O=c1c(O)c(-c2ccc(O)c(O)c2)oc2cc(O)cc(O)c12 [QUERCETIN] | 60.6% | 62.7% | – | – | 48.9% | 57.9% | 56.3% | – | –
19 | O=c1c2cc(NS(=O)(=O)c3cc(Cl)cc(Cl)c3)ccc2nc2n1CCc1c-2[nH]c2ccccc12 | 59.6% | 69.5% | 84.4 µM | 7.94 µM | 42.4% | 47.9% | 45.3% | Dose-dependent effect | 3.21
20 | O=c1c2cc(NS(=O)(=O)c3ccc(Br)cc3)ccc2nc2n1CCc1c-2[nH]c2ccccc12 | 45.4% | 47.6% | 40.4 µM | 8.94 µM | 39.9% | 44.1% | 41.8% | – | –
21 | COc1ccc(S(=O)(=O)Nc2ccc3nc4n(c(=O)c3c2)CCc2c-4[nH]c3ccccc23)c(OC)c1 | 56% | 51.1% | 77 µM | 7.58 µM | 49.6% | 52% | 51.1% | – | –
